Measurements reported in ChEMBL document CHEMBL1156004, “Pyrazolopyrimidines and pyrazolotriazines with potent activity against herpesviruses” (Bioorg Med Chem Lett, 2009).

Assays:
[1] = Antiviral activity against HSV1 SC16 infected in african green monkey Vero cells by hybrid capture method; assay type: functional, cell-based, Herpes simplex virus (type 1 / strain SC16); conditions: Human alphaherpesvirus 1, Vero
[2] = Cytotoxicity against african green monkey Vero cells; assay type: cell-based; conditions: chlorocebus sabaeus
[3] = Oral bioavailability in Sprague-Dawley rat at 1 mg/kg; assay type: ADME, organism-based; conditions: in vivo
[4] = Half life in Sprague-Dawley rat at 1 mg/kg, iv and po; assay type: ADME, organism-based; design: dose 1 mg/kg, route oral; conditions: in vivo
[5] = Cmax in Sprague-Dawley rat at 1 mg/kg, iv and po after 30 mins; assay type: ADME, organism-based; design: dose 1 mg/kg, route oral; conditions: in vivo
Rattus norvegicus = assay: Volume of distribution in Sprague-Dawley rat at 1 mg/kg, iv and po; assay type: ADME, organism-based; design: dose 1 mg/kg, route oral; conditions: in vivo

Fc1ccc(-c2nn3c(NC4CCCC4)cccc3c2-c2ccnc(NC3CCCC3)n2)cc1
IC50 [1]: 260 nM
CC50 [2]: > 160000 nM

Fc1ccc(-c2nn3c(NC4CCCC4)cc(NC4CCCC4)cc3c2-c2ccnc(NC3CCCC3)n2)cc1
IC50 [1]: 240 nM
CC50 [2]: > 40000 nM

COc1ccc(-c2nn3c(NC4CCCC4)cccc3c2-c2ccnc(NC3CCCC3)n2)cc1
IC50 [1]: 220 nM
CC50 [2]: > 100000 nM

c1cc(NC2CCCC2)n2nc(-c3ccc(OCC4CC4)cc3)c(-c3ccnc(NC4CCCC4)n3)c2c1
IC50 [1]: 170 nM
CC50 [2]: > 40000 nM

Fc1ccc(-c2nn3c(NC4CCCC4)nccc3c2-c2ccnc(NC3CCCC3)n2)cc1
bioavailability [3]: 24%
half-life [4]: 2.5 h
IC50 [1]: 170 nM
Cmax [5]: 300 nM
Vd (Rattus norvegicus): 1.2 L/kg
CC50 [2]: > 40000 nM

Clc1cccc(-c2nn3c(N4CCOCC4)nccc3c2-c2ccnc(NC3CCCC3)n2)c1
IC50 [1]: 200 nM
CC50 [2]: > 40000 nM

c1ccc(-c2nn3c(NC4CCCC4)ccnc3c2-c2ccnc(NC3CCCC3)c2)cc1
IC50 [1]: 300 nM
CC50 [2]: 14000 nM

Fc1ccc(-c2nn3c(NC4CCCC4)ccnc3c2-c2ccnc(NC3CCCC3)c2)cc1
IC50 [1]: 1200 nM
CC50 [2]: 16000 nM

c1cc(-c2c(-c3ccc(OCC4CC4)cc3)nn3c(NC4CCCC4)nccc23)nc(NC2CCCC2)n1
IC50 [1]: 690 nM
CC50 [2]: > 40000 nM

CCCCOc1ccc(-c2nn3c(NC4CCCC4)nccc3c2-c2ccnc(NC3CCCC3)n2)cc1
IC50 [1]: 470 nM
CC50 [2]: > 40000 nM

c1ccc(-c2nn3c(NC4CCCC4)ncnc3c2-c2ccnc(NC3CCCC3)n2)cc1
IC50 [1]: 6400 nM
CC50 [2]: > 40000 nM

COc1ccc(-c2nn3c(NC4CCCC4)nccc3c2-c2ccnc(NC3CCCC3)n2)cc1
IC50 [1]: 280 nM
CC50 [2]: > 40000 nM

CC(C)(C)Nc1nccc2c(-c3ccnc(NC4CCCC4)n3)c(-c3ccc(F)cc3)nn12
IC50 [1]: 6610 nM
CC50 [2]: > 40000 nM

COCCNc1nccc2c(-c3ccnc(NC4CCCC4)n3)c(-c3cccc(Cl)c3)nn12
IC50 [1]: 300 nM
CC50 [2]: > 40000 nM

Fc1ccc(-c2nn3c(N4CCCC4)nccc3c2-c2ccnc(NC3CCCC3)n2)cc1
IC50 [1]: 1900 nM
CC50 [2]: > 40000 nM

CC(C)COc1ccc(-c2nn3c(NC4CCCC4)nccc3c2-c2ccnc(NC3CCCC3)n2)cc1
IC50 [1]: 610 nM
CC50 [2]: > 40000 nM

COc1ccc(-c2nn3c(NC4CCCC4)ccnc3c2-c2ccnc(NC3CCCC3)c2)cc1
IC50 [1]: 600 nM
CC50 [2]: 10000 nM

Oc1ccc(-c2nn3c(NC4CCCC4)nccc3c2-c2ccnc(NC3CCCC3)n2)cc1
IC50 [1]: 4000 nM
CC50 [2]: 27000 nM

COCCOc1ccc(-c2nn3c(NC4CCCC4)nccc3c2-c2ccnc(NC3CCCC3)n2)cc1
IC50 [1]: 1120 nM
CC50 [2]: > 40000 nM

Clc1cccc(-c2nn3c(NC4CCCC4)nccc3c2-c2ccnc(NC3CCCC3)n2)c1
IC50 [1]: 460 nM
CC50 [2]: > 40000 nM

Fc1ccc(-c2nn3c(N4CCCCC4)nccc3c2-c2ccnc(NC3CCCC3)n2)cc1
IC50 [1]: 980 nM
CC50 [2]: > 40000 nM

COc1ccc(-c2nn3c(NC4CCCC4)ccnc3c2-c2ccnc(NC3CCCC3)n2)cc1
IC50 [1]: 2400 nM
CC50 [2]: 32000 nM

c1ccc(-c2nn3c(NC4CCCC4)nc(NC4CCCC4)nc3c2-c2ccnc(NC3CCCC3)c2)cc1
IC50 [1]: 120 nM
CC50 [2]: > 40000 nM

CCCOc1ccc(-c2nn3c(NC4CCCC4)nccc3c2-c2ccnc(NC3CCCC3)n2)cc1
IC50 [1]: 540 nM
CC50 [2]: > 20000 nM

c1ccc(-c2nn3c(NC4CCCC4)cccc3c2-c2ccnc(NC3CCCC3)n2)cc1
IC50 [1]: 620 nM
CC50 [2]: > 40000 nM

Nc1nc2c(ncn2COCCO)c(=O)[nH]1 [ACYCLOVIR]
IC50 [1]: 390 nM
CC50 [2]: > 200000 nM
